Experimental data reported in patent US10688196B2, “Cross-linking agents of collagen fibers for the use in the treatment of corneal ectasia” (SOOFT ITALIA SPA, priority 2015, dated 2020).

Key:
[1] = riboflavin solutions, 40 W fluorescent light, 1350 foot-candles; cited from earlier work
[2] = compared with solubility in water; cited from earlier work
bovine cornea = settings: compared to riboflavin in deionized water; cited from earlier work
[3] = Riboflavin titer determination before and after sterilization (stability); type: physicochemical; settings: 1 atm, 121° C.
Description: Riboflavin Titer Determination

[4] = ROS (superoxide anion) production on 366 nm irradiation, measured by reduction of Nitro Blue Tetrazolium to Formazan Blue (absorbance at 560 nm); settings: at different light intensities
Description: The rational of the method is based on the fact that some organic molecules, both natural and synthetic, when irradiated with a particular wavelength, activate and, by interacting with oxygen, produce superoxide anion. […] As the amount of produced superoxide anion correlates with the amount of reduced NBT, from the absorption rate of reduced NBT is obtained the amount of ROS, thereby the ROS production can be expressed as function of irradiation time (minutes).
The ROS measurement is performed by a photoactivation chamber which enables to irradiate in controlled conditions the solutions of photoactivator and detector. The controlled parameters are emission specificity, uniform radiance, irradiation intensity, irradiation time.
Riboflavin-5′-(dihydrogen phosphate), monosodium salt, control sample, NBT control sample and reference sample were irradiated at different incident light intensity (99 μW/cm^2, 223 μW/cm^2, 633 μW/cm^2) (366 nm wavelength) in the photoactivation chamber, and absorbance at 560 nm is recorded. During the irradiation the temperature of the solutions was measured. […] Therefore reasonably the effect of temperature is marginal on these absorbance measures.
The two samples were irradiated in the photoactivation chamber by 99 μW/cm^2 incident light, and absorbance at 560 nm was recorded according to the above described procedure. […]

cornea = settings: UVA irradiation at 370 nm, immediately after irradiation; cited from earlier work

Row | Compound | stabilizing effect on riboflavin (photodegradation) [1] [%] | effect on riboflavin aqueous solubility [2] | effect on riboflavin permeability (bovine cornea) (bovine cornea) | other results
1 | ribonucleic acid | 59.3 | – | – | –
2 | OC[C@H]1O[C@@H]2O[C@H]3[C@H](O)[C@@H](O)[C@@H](O[C@H]4[C@H](O)[C@@H](O)[C@@H](O[C@H]5[C@H](O)[C@@H](O)[C@@H](O[C@H]6[C@H](O)[C@@H](O)[C@@H](O[C@H]7[C@H](O)[C@@H](O)[C@@H](O[C@H]8[C@H](O)[C@@H](O)[C@@H](O[C@H]9[C@H](O)[C@@H](O)[C@@H](O[C@H]1[C@H](O)[C@H]2O)O[C@@H]9CO)O[C@@H]8CO)O[C@@H]7CO)O[C@@H]6CO)O[C@@H]5CO)O[C@@H]4CO)O[C@@H]3CO [γ-cyclodextrin] | – | failed to enhance drug solubility at any significant level | no significant improvement in drug permeation | –
3 | CSCCC(N)C(=O)O (racemic) [DL-methionine] | 76.3 | – | – | –
4 | 2-Hydroxypropyl-β-cyclodextrin | – | failed to enhance drug solubility at any significant level | no significant improvement in drug permeation | –
5 | Cc1cc2nc3c(=O)[nH]c(=O)nc-3n(C[C@H](O)[C@H](O)[C@H](O)COP(=O)([O-])O)c2cc1C.[Na+] [Riboflavin phosphate, Riboflavin-5-Phosphate Sodium] | – | – | – | Riboflavin % by weight ([3]; in presence of EDTA H4 (0.1% p/p), Tris (0.05% p/p) and phosphate buffer, sterilization 20 min): 67.0 % by weight; Riboflavin % by weight ([3]; in presence of EDTA H4 (0.1% p/p), Tris (0.05% p/p) and phosphate buffer, sterilization 30 min): 60.0 % by weight; Riboflavin % by weight ([3]; in presence of EDTA H4 (0.1% p/p), Tris (0.05% p/p) and phosphate buffer, sterilization 45 min): 50.0 % by weight; Riboflavin % by weight ([3]; in presence of borate buffer, sterilization 20 min): 68.0 % by weight; Riboflavin % by weight ([3]; in presence of distilled water, sterilization 20 min): 95.0 % by weight; Riboflavin % by weight ([3]; in presence of distilled water, sterilization 30 min): 92.0 % by weight; Riboflavin % by weight ([3]; in presence of distilled water, sterilization 45 min): 90.0 % by weight; Riboflavin % by weight ([3]; in presence of phosphate buffer, sterilization 20 min): 65.0 % by weight; Riboflavin % by weight ([3]; in presence of phosphate buffer, sterilization 30 min): 40.0 % by weight; Riboflavin % by weight ([3]; in presence of phosphate buffer, sterilization 45 min): 39.0 % by weight; change of the absorption on irradiation [4]: no appreciable change of the absorption; increase of the biomechanical rigidity of the cornea (cornea): about 300%
6 | N[C@@H](CCC(=O)N[C@@H](CS)C(=O)NCC(=O)O)C(=O)O [reduced glutathione] | 26.2 | – | – | –
7 | O=C([O-])CN(CCN(CC(=O)[O-])CC(=O)O)CC(=O)O.[Na+].[Na+] [disodium ethylenediamine (EDTA)] | 96.2 | – | – | –
8 | OC[C@H]1O[C@@H]2O[C@H]3[C@H](O)[C@@H](O)[C@@H](O[C@H]4[C@H](O)[C@@H](O)[C@@H](O[C@H]5[C@H](O)[C@@H](O)[C@@H](O[C@H]6[C@H](O)[C@@H](O)[C@@H](O[C@H]7[C@H](O)[C@@H](O)[C@@H](O[C@H]1[C@H](O)[C@H]2O)O[C@@H]7CO)O[C@@H]6CO)O[C@@H]5CO)O[C@@H]4CO)O[C@@H]3CO [α-cyclodextrin] | – | increased riboflavin solubility | no significant improvement in drug permeation | –
9 | O=S([O-])([O-])=S.[Na+].[Na+] [sodium thiosulfate] | 72.9 | – | – | –
10 | OC[C@H]1O[C@@H]2O[C@H]3[C@H](O)[C@@H](O)[C@@H](O[C@H]4[C@H](O)[C@@H](O)[C@@H](O[C@H]5[C@H](O)[C@@H](O)[C@@H](O[C@H]6[C@H](O)[C@@H](O)[C@@H](O[C@H]7[C@H](O)[C@@H](O)[C@@H](O[C@H]8[C@H](O)[C@@H](O)[C@@H](O[C@H]1[C@H](O)[C@H]2O)O[C@@H]8CO)O[C@@H]7CO)O[C@@H]6CO)O[C@@H]5CO)O[C@@H]4CO)O[C@@H]3CO [β-cyclodextrin] | – | increased riboflavin solubility | enhances riboflavin permeability | –
11 | NC(N)=S [thiourea] | 88.2 | – | – | –
12 | COC(=O)c1ccc(O)cc1 [methylparaben] | 86.4 | – | – | –
